Source: PMC8206213, “An L-2-hydroxyglutarate biosensor based on specific transcriptional regulator LhgR” (Nature Communications, 2021)
“And” between values parts separate entries of the source, which are not always exact repeats. Equal entries are not always repeated.

Columns and labels:
LhgO = assay: Enzymatic assay of LhgO in crude extracts of P. putida KT2440 derivatives grown on different carbon sources (induction of lhgO under LhgR control); format: cell-based, Pseudomonas putida
Method: The cells were harvested at mid-log phase, washed twice and resuspended in phosphate-buffered saline (PBS), then lysed by sonication on ice after the addition of 1 mM phenylmethylsulfonyl fluoride (PMSF). […] Protein concentrations of the supernatants were determined using the Bradford protein assay kit (Sangon, China). […] The 800 μL reaction solution contained 0.1 mM […], 0.05 mM DCPIP, 0.2 mM phenazine methosulfate (PMS) in PBS and 40 μL crude extracts.

[1] = tested on: LHGFR3N7C expressed in E. coli BL21(DE3); assay: Control biosensor LHGFR3N7C expressed in E. coli, response to added compounds; format: cell-based; conditions: Supplementary Fig. 14a
Method: (§1) To characterize the sensitivity and specificity of LHGFR expressed in E. coli BL21(DE3), 90 μL cell suspensions following 8 h carbon starvation were mixed with 10 μL increasing concentrations of L-2-HG or other compounds, and then added into a black 96-well plate (total 100 μL/per well), the fluorescence intensities were determined using an EnSight microplate reader (PerkinElmer, USA) and the following instrument settings: excitation at 430 nm, emission at 485 nm (mTFP) and 528 nm (Venus), time intervals of 5 min, the temperature at 37 °C, and shake at 180 rpm.

[2] = tested on: LHGFR0N3C expressed in E. coli BL21(DE3); assay: Specificity of LHGFR0N3C expressed in E. coli BL21(DE3), 1 mM compounds; format: cell-based; conditions: for Emission ratio: 1 mM compound, Fig. 5c
Method: as §1

O=C(O)CC[C@H](O)C(=O)O [L-2-HG, L-2-Hydroxyglutarate]
LhgO activity (LhgO; crude extract of DcsiRDlhgO-pME6032-F2-lhgR-F1-lhgO grown with the compound as sole carbon source): 0.02241 and 0.0245 and 0.02829 | Induction of lhgO expression / effector molecule of LhgR (LhgO; gene segment F2-lhgR-F1-lhgO in P. putida KT2440 derivatives): can induce the expression of lhgO | normalized emission ratio of control biosensor expressed in E. coli ([1]; time 0 min): 1.025 and 0.9958 and 0.9991 and 1.005 | normalized emission ratio of control biosensor expressed in E. coli ([1]; time 5 min): 1.029 and 0.9977 and 0.9908 and 1.001 | normalized emission ratio of control biosensor expressed in E. coli ([1]; time 10 min): 1.016 and 0.9993 and 0.9928 and 0.996 | normalized emission ratio of control biosensor expressed in E. coli ([1]; time 15 min): 1.012 and 0.9858 and 0.9895 and 0.9948 | normalized emission ratio of control biosensor expressed in E. coli ([1]; time 20 min): 1.006 and 0.9892 and 0.9883 and 1.004 | normalized emission ratio of control biosensor expressed in E. coli ([1]; time 25 min): 1.005 and 0.9958 and 0.9871 and 1.006 | normalized emission ratio of control biosensor expressed in E. coli ([1]; time 30 min): 1.009 and 0.9836 and 0.9873 and 0.9978 | normalized emission ratio of control biosensor expressed in E. coli ([1]; time 35 min): 1.002 (2×) and 0.988 and 0.9805 | normalized emission ratio of control biosensor expressed in E. coli ([1]; time 40 min): 1.005 and 0.9884 and 0.9838 and 1.008 | normalized emission ratio of control biosensor expressed in E. coli ([1]; time 45 min): 1.011 and 0.9924 and 0.993 and 1.004 | normalized emission ratio of control biosensor expressed in E. coli ([1]; time 50 min): 0.997 and 0.991 and 0.9858 and 1.009 | normalized emission ratio of control biosensor expressed in E. coli ([1]; time 55 min): 1.0056 and 0.9921 and 0.9909 and 1.012 | normalized emission ratio of control biosensor expressed in E. coli ([1]; time 60 min): 1.003 and 0.9967 and 0.9937 and 1.007 | normalized emission ratio of control biosensor expressed in E. coli ([1]; time 65 min): 0.9962 (2×) and 0.991 and 1.017 | normalized emission ratio of control biosensor expressed in E. coli ([1]; time 70 min): 1.013 and 1.001 and 0.9947 and 1.016 | normalized emission ratio of control biosensor expressed in E. coli ([1]; time 75 min): 1.004 and 0.9948 and 0.9987 and 1.025 | normalized emission ratio of control biosensor expressed in E. coli ([1]; time 80 min): 1.011 and 1.0052 and 1.01 and 1.025 | normalized emission ratio of control biosensor expressed in E. coli ([1]; time 85 min): 1.015 and 0.9941 and 1.005 and 1.023 | normalized emission ratio of control biosensor expressed in E. coli ([1]; time 90 min): 1.028 and 1.011 and 1.01 and 1.022 | Emission ratio ([2]; 0 min): 1.025 and 0.9964 and 0.9897 | Emission ratio ([2]; 5 min): 1.0102 and 1.019 and 1.007 | Emission ratio ([2]; 10 min): 1.0776 and 1.069 and 1.057 | Emission ratio ([2]; 15 min): 1.152 and 1.136 and 1.118 | Emission ratio ([2]; 20 min): 1.219 and 1.203 and 1.181 | Emission ratio ([2]; 25 min): 1.256 and 1.2441 and 1.233 | Emission ratio ([2]; 30 min): 1.305 and 1.29 and 1.273 | Emission ratio ([2]; 35 min): 1.298 and 1.29 and 1.292 | Emission ratio ([2]; 40 min): 1.314 and 1.317 and 1.304 | Emission ratio ([2]; 45 min): 1.326 and 1.316 and 1.3122 | Emission ratio ([2]; 50 min): 1.332 and 1.331 and 1.305 | Emission ratio ([2]; 55 min): 1.343 and 1.33 and 1.32 | Emission ratio ([2]; 60 min): 1.3375 and 1.331 and 1.312 | Emission ratio ([2]; 65 min): 1.326 and 1.339 and 1.336 | Emission ratio ([2]; 70 min): 1.339 and 1.343 and 1.334 | Emission ratio ([2]; 75 min): 1.32 and 1.336 and 1.325 | Emission ratio ([2]; 80 min): 1.332 and 1.339 and 1.343 | Emission ratio ([2]; 85 min): 1.326 and 1.34 and 1.332 | Emission ratio ([2]; 90 min): 1.323 and 1.316 and 1.34 | Increase of the emission ratio in E. coli BL21(DE3) ([2]; 1 mM exogenous compound): could significantly increase the emission ratio
